Test results: patent publication US6537994B2, “Heterocyclic β3 adrenergic receptor agonists” (Wyeth, priority 2000, dated 2003)
“And” between values parts separate entries of the source, which are not always exact repeats. Equal values may be shown once.

Legend:
[1] = target: T1, human β3-AR (Homo sapiens, UniProt P13945); experiment: cAMP accumulation (SPA) in CHO cells transfected with human β3 adrenergic receptor; type: cell-based; settings: for EC50: CHO cells expressing human β3-AR, cAMP, 30 min incubation, 10^−9 M to 10^−5 M; for IA(β3): maximal response, IA=% activity compound/% activity isoproterenol at 10^−5 M
T1 construct: Full length β3 AR clones (402 amino acids) containing the last 6 amino acids of hβ3-AR; expressed in transfected cells; host or cells: CHO cells
Description: The ability of compounds of this invention to treat or inhibit disorders related to insulin resistance or hyperglycemia was confirmed with representative compounds of this invention in the following standard pharmacological test procedures, which measured the binding selectivity to the β1, β2, and β3 adrenergic receptors. Binding to the receptors was measured in Chinese Hamster ovary (CHO) cells that were transfected with adrenergic receptors. The following briefly summarizes the procedures used and results obtained.
Cloning of Human β3-AR Genomic DNA: cDNA was constructed by ligating four polymerase chain reaction (PCR) products using the following primers: an ATG-Narl fragment, sense primer 5′-[…]3′ and anti-sense primer 5′[…]3′; a Narl-Accl fragment, 5′[…]3′ as sense and 5′[…]3′ as anti-sense primer; an Accli-Styl fragment, sense primer 5′[…]3′ and anti-sense primer 5′[…]3′ and a Styl-TAG fragment, with sense primer 5′[…]3′ and anti-sense primer 5′[…]3′. The corresponding primer sequences are described in Mantzoros, C. S., et. al., Diabetes 45: 909-914 (1996). The four fragments are ligated into a pUC 18 plasmid (Gibco-BRL) and sequenced. Full length β3 AR clones (402 amino acids) containing the last 6 amino acids of hβ3-AR are prepared with the β3-βARpcDNA3 from ATTC.
Binding Procedure: Clones expressing receptor levels of 70 to 110 fmoles/mg protein were used in the test procedures. CHO cells were grown in 24-well tissue culture plates in Dulbecco's Modified Eagle Media with 10% fetal bovine serum, MEM non-essential amino acids, Penicillin-Streptompycin and Geneticin. On the day of test procedure, growth medium was replaced with preincubation media (Dulbecco's Modified Eagle Media and incubated for 30 minutes at 37° C. Preincubation medium was replaced with 0.2 ml treatment medium containing DMEM media containing 250 μM IBMX (isobutyl-1-methylxantine) plus 1 mM ascorbic acid with test compound dissolved in DMSO. Test compounds were tested over a concentration range of 10^−9 M to 10^−5 M for β3 cells and 10^−8 to 10^−4 M for β1 and β2 transfected cells. Isoproterenol (10^−5 M) was used as an internal standard for comparison of activity. Cells were incubated at 37° C. on a rocker for 30 min with the β3 cells and 15 min for β1 and β2 cells. Incubation was stopped with the addition of 0.2N HCl and neutralized with 2.5N NaOH. The plates, containing the cells and neutralized media, were stored at −20 degrees celsius until ready to test for cAMP using the SPA test kit (Amersham).
Data Analysis and Results: Data collected from the SPA test procedure were analyzed as per cent of the maximal isoproterenol response at 10^−5 M. Activity curves were plotted using the SAS statistical and graphics software.
IA=% activity compound/% activity isoproterenol

T1 sequence (P13945 whole entry): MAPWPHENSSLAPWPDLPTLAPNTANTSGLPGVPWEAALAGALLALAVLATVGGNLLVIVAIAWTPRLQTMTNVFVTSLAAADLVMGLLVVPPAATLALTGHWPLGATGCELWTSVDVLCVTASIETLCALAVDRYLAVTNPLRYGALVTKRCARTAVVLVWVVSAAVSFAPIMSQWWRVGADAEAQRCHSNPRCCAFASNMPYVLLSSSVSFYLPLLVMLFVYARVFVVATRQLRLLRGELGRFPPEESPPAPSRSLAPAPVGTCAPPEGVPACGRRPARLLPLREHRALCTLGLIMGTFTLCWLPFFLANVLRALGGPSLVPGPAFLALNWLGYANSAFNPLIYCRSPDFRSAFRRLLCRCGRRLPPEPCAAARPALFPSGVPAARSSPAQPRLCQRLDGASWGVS

| melting point | EC50 [1] | IA(β3) [1] | Structure (SMILES) |
| --- | --- | --- | --- |
| 49 to 52 °C |  |  | Oc1ccc(OC[C@@H](O)CNCCc2ccc(-n3cnc4cccnc43)cc2)cc1 (hydrate or solvate) [Example 3, 4-{(2S)-2-Hydroxy-3-[2-(4-imidazo[4,5-b]pyridin-3-yl-phenyl)-ethylamino]-propoxy}-phenol] |
|  | 70 nM | 1.05 | CCCCCCNC(=O)Nc1ccc(-c2nc3cccnc3n2-c2ccc(CCNC[C@H](O)COc3ccc(O)cc3)cc2)cc1 [Example 15, N-hexyl-N′-(4-{3-[4-(2-{[(2S)-2-hydroxy-3-(4-hydroxyphenoxy)propyl]amino}ethyl)phenyl]-3H-imidazo[4,5-b]pyridin-2-yl}phenyl)urea] |
| 87 to 89 °C | 54 nM | 0.086 | Cc1ccn(-c2ccc(-c3nc4cccnc4n3-c3ccc(CCNCC(O)COc4ccc(O)cc4)cc3)c(Cl)c2)n1 (stereo not drawn) [Example 14, 4-{3-[2-(4-{2-[2-Chloro-4-(3-methyl-pyrazol-1-yl)-phenyl]-imidazo[4,5-b]pyridin-3-yl}-phenyl)-ethylamino]-2-hydroxy-propoxy}-phenol] |
| 148 to 149 °C |  |  | O=[N+]([O-])c1cccnc1Nc1ccc(CCNC[C@H](O)COc2ccc(O)cc2)cc1 (hydrate or solvate) [Example 1, 4-((2S)-2-Hydroxy-3-{2-[4-(3-nitro-pyridin-2-ylamino)-phenyl]-ethylamino}-propoxy)-phenol] |
|  | 324 nM | 0.65 | O=[N+]([O-])c1cccnc1Nc1ccc(CCNC[C@H](O)COc2ccc(O)cc2)cc1 [Example 1, 4-((2S)-2-Hydroxy-3-{2-[4-(3-nitro-pyridin-2-ylamino)-phenyl]-ethylamino}-propoxy)-phenol] |
| 61 to 64 °C |  |  | CCCCCCNC(=O)Nc1cccnc1Nc1ccc(CCNC[C@H](O)COc2ccc(O)cc2)cc1 [Example 4, 1-Hexyl-3-[2-(4-{2-[(2S)-2-hydroxy-3-(4-hydroxy-phenoxy)-propylamino]-ethyl}-phenylamino)-pyridin-3-yl]-urea] |
| 97 to 99 °C | 83 nM | 0.88 | O=C(Nc1cccnc1Nc1ccc(CCNC[C@H](O)COc2ccc(O)cc2)cc1)c1ccccc1 [Example 6, N-[2-(4-{2-[(2S)-2-Hydroxy-3-(4-hydroxy-phenoxy)-propylamino]-ethyl}-phenylamino)-pyridin-3-yl]-benzamide] |
| 59 to 61 °C | 10 nM | 0.86 | Oc1ccc(OC[C@@H](O)CNCCc2ccc(-n3c(CCC4CCCC4)nc4cccnc43)cc2)cc1 [Example 11, 4-[(2S)-3-(2-{4-[2-(2-Cyclopentyl-ethyl)-imidazo[4,5-b]pyridin-3-yl]-phenyl}-ethylamino)-2-hydroxy-propoxy]-phenol] |
|  | 20 nM | 1.12 | Nc1cccnc1Oc1ccc(CCNC[C@H](O)COc2ccc(O)cc2)cc1 [Example 5, 4-((2S)-3-{2-[4-(3-Amino-pyridin-2-yloxy)-phenyl]-ethylamino}-2-hydroxy-propoxy)-phenol] |
|  | 95 nM | 0.76 | Oc1ccc(OC[C@@H](O)CNCCc2ccc(-n3cnc4cccnc43)cc2)cc1 [Example 3, 4-{(2S)-2-Hydroxy-3-[2-(4-imidazo[4,5-b]pyridin-3-yl-phenyl)-ethylamino]-propoxy}-phenol] |
| 93 to 95 °C |  |  | CCCCCCNC(=O)Nc1cccc(-c2nc3cccnc3n2-c2ccc(CCNCC(O)COc3ccc(O)cc3)cc2)c1 (stereo not drawn) (hydrate or solvate) [Example 16, 1-Hexyl-3-{3-[3-(4-{2-[2-hydroxy-3-(4-hydroxy-phenoxy)-propylamino]-ethyl}-phenyl)-3H-imidazo[4,5-b]pyridin-2-yl]-phenyl}-urea] |
| 63 to 65 °C |  |  | Nc1cccnc1Nc1ccc(CCNC[C@H](O)COc2ccc(O)cc2)cc1 (hydrate or solvate) [Example 2, 4-((2R)-3-{2-[4-(3-Amino-pyridin-2-ylamino)-phenyl]-ethylamino}-2-hydroxy-propoxy)-phenol] |
| 75 to 78 °C | 6 nM | 1.03 | CCc1ccc(-c2nc3cccnc3n2-c2ccc(CCNC[C@H](O)COc3ccc(O)cc3)cc2)cc1 [Example 8, 4-[(2S)-3-(2-{4-[2-(4-Ethyl-phenyl)-imidazo[4,5-b]pyridin-3-yl]-phenyl}-ethylamino)-2-hydroxy-propoxy]-phenol] |
| 90 to 92 °C |  |  | CCCCCCNC(=O)Nc1ccc(CCc2nc3cccnc3n2-c2ccc(CCNC[C@H](O)COc3ccc(O)cc3)cc2)cc1 (hydrate or solvate) [Example 17, 1-Hexyl-3-(4-{2-[3-(4-{2-[(2S)-2-hydroxy-3-(4-hydroxy-phenoxy)-propylamino]-ethyl}-phenyl)-3H-imidazo[4,5-b]pyridin-2-yl]-ethyl}-phenyl)-urea] |
| 50 to 52 °C | 266 nM | 0.74 | CCCCCc1nc2cccnc2n1-c1ccc(CCNC[C@H](O)COc2ccc(O)cc2)cc1 [Example 9, 4-((2S)-2-Hydroxy-3-{2-[4-(2-pentyl-imidazo[4,5-b]pyridin-3-yl)-phenyl]-ethylaminol}-propoxy)-phenol] |
| 110 to 116 °C |  |  | CCCCCCNC(=O)Nc1ccc(-c2nc3cccnc3n2-c2ccc(CCNC[C@H](O)COc3ccc(O)cc3)cc2)cc1 (hydrate or solvate) [Example 15, N-hexyl-N′-(4-{3-[4-(2-{[(2S)-2-hydroxy-3-(4-hydroxyphenoxy)propyl]amino}ethyl)phenyl]-3H-imidazo[4,5-b]pyridin-2-yl}phenyl)urea] |
| 100 to 102 °C | 6 nM | 0.96 | Oc1ccc(OC[C@@H](O)CNCCc2ccc(-n3c(-c4ccc(C5CCCCC5)cc4)nc4cccnc43)cc2)cc1 [Example 10, 4-[(2S)-3-(2-{4-[2-(4-Cyclohexyl-phenyl)-imidazo[4,5-b]pyridin-3-yl]-phenyl}-ethylamino)-2-hydroxy-propoxy]-phenol] |
| 115 to 117 °C | 5 nM and 15 nM |  | O=c1[nH]c2cccc(OCC(O)CNCCc3ccc(-n4c(CCC5CCCC5)nc5cccnc54)cc3)c2[nH]1 (stereo not drawn) [Example 12, 4-[3-(2-{4-[2-(2-Cyclopentyl-ethyl)-imidazo[4,5-b]pyridin-3-yl]-phenyl}-ethylamino) -2-hydroxy-propoxy]-1,3-dihydro-benzoimidazol-2-one] |
|  | 46 nM | 0.087 | CCCCCc1nc2cccnc2n1-c1ccc(CCNC[C@H](O)COc2cccc3[nH]c(=O)[nH]c23)cc1 [Example 13, 4-((2S)-2-Hydroxy-3-{2-[4-(2-pentyl-imidazo[4,5-b]pyridin-3-yl)-phenyl]-ethylaminol}-propoxy)-1,3-dihydro-benzoimidazol-2-one] |
|  | 72 nM | 1.01 | Nc1cccnc1Nc1ccc(CCNCC(O)COc2ccc(O)cc2)cc1 (stereo in doubt) [Example 2, 4-((2R)-3-{2-[4-(3-Amino-pyridin-2-ylamino)-phenyl]-ethylamino}-2-hydroxy-propoxy)-phenol] |
| 62 to 64 °C | 57 nM | 1.12 | C=C(C)n1c(=O)n(-c2ccc(CCNC[C@H](O)COc3ccc(O)cc3)cc2)c2ncccc21 [Example 7, 3-(4-{2-[(2S)-2-Hydroxy-3-(4-hydroxy-phenoxy)-propylamino]-ethyl}-phenyl)-1-isopropenyl-1,3-dihydro-imidazo[4,5-b]pyridin-2-one] |
